Test results from patent US9526705B2, “Lipidated glycosaminoglycan particles and their use in drug and gene delivery for diagnosis and therapy” (Tel-Aviv University Future Technology Development L.P., priority 2001, dated 2016).

Assays:
[1] = Efficiency of entrapment in gagomers (absorbency, ELISA plate reader); format: physicochemical
Description: The efficiency of entrapment of drugs or other bioactive agents in the gagomers and the kinetics of drug efflux for small molecular weight drugs were determined using absorbency in an ELISA plate reader, with appropriate wavelengths for each given entrapped entity.

[2] = calculated from efflux rate constant, 50 minutes incubation
Description: The independent variable is time. The dependent variable (f) is the percentage of drug released at time=t with respect to the total drug in the system at time t=0.

[3] = test system: C-26 cells (mouse colon carcinoma); details: Run 1
Description: Female BALB/c mice which were 8 weeks old at initiation of the experiment were used. The tumor model employed was C-26 cells (originating from mouse colon carcinoma) injected subcutaneously into the right hind footpad. […] The MMC dose was 2 mg/kg body, in both free and DDS formulations and the DDS dose was 1 mg/ml.
To provide the tumor, C-26 cells were grown in cell culture flasks. At day zero, the cells were harvested, washed several times, counted and immediately injected. The injected dose was 8×10^5 cells in 30 μl.
(§1) Treatments were given on days 5, 12 and 19. Administration was by injection into the tail vein. All injected volumes were 0.1 ml.
Parameters measured for Run 1 were retention in circulation, tumor onset, tumor volume, survival. Parameters measured for Run 2 were survival.

[4] = test system: cell line C26 (mouse colon carcinoma); details: 4 hours exposure, viable cells 24 hours from start, MMC 30 and 50 μg/ml
Description: This is an inherent multidrug resistant (MDR) line originating from mouse colon carcinoma.

[5] = i.v. tail vein, MMC 2 mg/kg
Description: Female BALB/c mice which were 8 weeks old at initiation of the experiment were used. […] The MMC dose was 2 mg/kg body, in both free and DDS formulations and the DDS dose was 1 mg/ml.
as §1
At selected periods post-injection, animals receiving drug-containing formulations were bled, and samples were treated according to established protocols. MMC concentration was determined by HPLC assay.

B16F10 (mouse melanoma) = test: Tumor metastasis model: lung metastases after i.v. B16F10 cells; format: in vivo, C57BL/6 mice; details: day 21
Description: C57BL/6 female mice were used, which were 12 weeks old at initiation of the experiment. […] The DDS system was LLG in the form of nano particles. The test system was MMC formulated in the novel DDS of the present invention, denoted MMC/DDS.
Group 1 is a control group of healthy mice that were not inoculated with tumor cells.
B16F10 cells were grown in cell culture flasks. […] The injected dose was 5×10^5 cells in 50 μl PBS.
Treatments were given on days 1, 5 and 9. […] All injected volumes were 0.1 ml. The experiment was terminated 21 days post tumor inoculation. The animals were sacrificed, and the lungs were removed, weighed, and fixed in Bouin's solution. Lung weight increase was calculated using the following formula: Lung weight increase(%)=100×(tumor lung weight−normal lung weight)/normal lung weight Surface metastases were counted by an expert using a dissecting microscope.
Quantitative evaluation of metastases in the lungs can be performed by two independent measurements: actual counting of the metastases in excised and properly fixed lungs; and/or measurement of the increase in the weight of the lungs due to the metastases in the animals injected with tumor cells. Both techniques were implemented in the present study.

[6] = test system: MCF7 cells (human breast carcinoma); test: BSA-FITC entry into cells, confocal microscopy; format: cell-based; details: MCF7, 3.3 mg/ml, 25° C., 60 minutes
Description: Bovine serum albumin tagged with the fluorescent marker FITC (BSA-FITC) in both free form and entrapped in the DDS was used to determine whether DDS can also induce the entry of large macromolecules into cells. The free and the DDS-entrapped BSA-FITC were incubated at 25° C. for 60 minutes with confluent monolayers of MCF7 cells (originating from human breast carcinoma). MCF-7 cells are reported to have two known receptors for hyaluronic acid—ICAM-1 and CD44. The protein/DDS systems were cleaned from the free protein. The free and the entrapped protein were at the same concentration: 3.3 mg/ml. At the end of the incubation the cells were viewed by means of confocal microscopy.

For O=C(N[C@H](CO)[C@H](O)c1ccc([N+](=O)[O-])cc1)C(Cl)Cl [Chloramphenicol], the “Encapsulation Efficiency (%) By Kinetics” value ([1]; Micro-gagomers) was 30.5 ± 1.9%, the “Encapsulation Efficiency (%) By Thermodynamics” value ([1]; Micro-gagomers) was 39.3 ± 3.9% and the “Encapsulation Efficiency (%) By Kinetics” value ([1]; Nano-gagomers) was 47.1 ± 1.5%. For the same compound, the “Encapsulation Efficiency (%) By Thermodynamics” value ([1]; Nano-gagomers) was 47.4 ± 0.3%.

With COc1cccc2c1C(=O)c1c(O)c3c(c(O)c1C2=O)C[C@@](O)(C(=O)CO)C[C@@H]3O[C@H]1C[C@H](N)[C@H](O)[C@H](C)O1 [Doxorubicin, doxorubicin] the “Encapsulation Efficiency (%) By Kinetics” value ([1]; Micro-gagomers) was 50.2 ± 1.2%, the “Encapsulation Efficiency (%) By Thermodynamics” value ([1]; Micro-gagomers) was 52.4 ± 6.3% and the “Encapsulation Efficiency (%) By Kinetics” value ([1]; Nano-gagomers) was 53.6 ± 0.9%. The “Encapsulation Efficiency (%) By Thermodynamics” value ([1]; Nano-gagomers) was 57.0 ± 3.7%.

For CC[n+]1c(-c2ccccc2)c2cc(N)ccc2c2ccc(N)cc21 [EtBr, ethidium bromide], the “efflux of the entrapped marker in the course of the incubation” value [2] was no more than 2%.

For CO[C@@]12[C@H](COC(N)=O)C3=C(C(=O)C(C)=C(N)C3=O)N1C[C@@H]1N[C@@H]12 [Mitomycin C, mitomycin C], the “increase in tumor volume / tumor growth rate” value ([3]; 3 i.v. doses) was “not much different than in the saline group”, the “day on which tumor was first detected” value ([3]; treatments on days 5, 12 and 19, MMC 2 mg/kg) was 7 days and the “cell death (compared to untreated control)” value [4] was “under 15%”. For the same compound, the retention in circulation [5] was “disappears very quickly from the circulation”, the “increase in lung weight, in words” value (B16F10 (mouse melanoma); saline group close to 400%) was “almost the same” and the “number of lung metastases versus saline group” value (B16F10 (mouse melanoma); lungs, MMC 5 mg/Kg) was “no statistical difference”.

In the case of “free BSA-FITC: Bovine serum albumin tagged with the fluorescent marker FITC, free form”, the “protein entry into the cells” value [6] is reported as “Some of the protein gained entry into the cell” and the “protein entry into the nucleus” value [6] is reported as “not inside the nucleus”.

For α-Interferon, the “Encapsulation Efficiency (%)” value ([1]; DDS microparticles, insulin concentration 10 mg/ml) was 72.5 ± 3.7%.
